Data taken from paper PMC7022573, “Development of Level A In Vitro–Vivo Correlation for Electrosprayed Microspheres Containing Leuprolide: Physicochemical, Pharmacokinetic, and Pharmacodynamic Evaluation” (Pharmaceutics, 2020).

Key:
[1] = Solvent selection for the drug phase: dissolution of leuprolide; format: physicochemical
Source text: Solubility, viscosity, spray pattern, and density of polymer solution were investigated using four solvents (methylene chloride, acetonitrile, ethyl acetate, and acetone), and the optimal solvent was selected from among these. Parameters including dissolution of the leuprolide, miscibility with the solvent of polymer phase, drying degree of dry matter, and density of drug solution were investigated using three solvents (water, ethanol, and methanol), and the optimal solvent was selected.

[2] = rat, in vivo, sc; cited from earlier work
Experimental: The IVIVC model development in this study was carried out using Berkeley Madonna (program version 8.3.14). Differences in PK profiles by formulations were evaluated by adding a release compartment to reflect the release characteristic.

Dissolution of Leuprolide ([1]; solvent methanol): high solubility
Dissolution of Leuprolide ([1]; solvent water): high solubility
SMILES: CCNC(=O)[C@@H]1CCCN1C(=O)[C@H](CCCNC(=N)N)NC(=O)[C@H](CC(C)C)NC(=O)[C@@H](CC(C)C)NC(=O)[C@H](Cc1ccc(O)cc1)NC(=O)[C@H](CO)NC(=O)[C@H](Cc1c[nH]c2ccccc12)NC(=O)[C@H](Cc1c[nH]cn1)NC(=O)[C@@H]1CCC(=O)N1 [leuprolide]
Dissolution of Leuprolide ([1]; solvent ethanol): dissolves leuprolide slowly, and the drug easily precipitated
CL (clearance) [2]: 514.46 mL/h
Vd (volume of distribution) [2]: 487.40 mL
ka (absorption rate constant) [2]: 16.67 h⁻¹
